# Laboratory results taken from patent US11498896B2 (The Broad Institute, Inc., priority 2014, dated 2022).
# Tested on: striatal D2/D3
# Assay: Positron emission tomography with [11C]raclopride
# Type: in vivo, Male Sprague-Dawley rats
# Conditions: scans 1 hour after administration; in comparison with clozapine
# Procedure: Positron Emission Tomography Studies on Rodents
# All animal procedures were performed in accordance with the National Institutes of Health Guide for the Care and Use of Laboratory Animals and were approved by the Massachusetts General Hospital Institutional Animal Care and Use Facility. Male Sprague-Dawley rats (8-14 weeks old, Charles River Labs) were used for the study with animals pair-housed on a diurnal 12:12 light/dark cycle with free access to food and water. […] Respiration of each animal was monitored for the duration of the procedure.
# Carbon 11-labeled raclopride ([^11C]RAC) was synthesized from the O-desmethyl RAC precursor and [11C] methyl iodide and subsequently purified by high-performance liquid chromatography as previously described (Farde L, et al. (1985) PNAS, USA 82(11):3863-3867). […] ROI dimensions, placement and striatal D2/D3 binding potential (BPND) were evaluated by graphical analysis using Logan distribution volume ratio (DVR) linearization as previously described (BPND.=DVR-1; Alexoff D, et al. (2002) J Nuc Med 44(5): 815-822; Logan J, et al. (1996) J Cerebral Blood Flow and Metabolism 16(5):[…]).
smiles,measurement,value
"CC1(Oc2ccc(Cl)cc2)CCN(CCOc2ccccc2C(F)(F)F)CC1 [Compound 90, 4-(4-Chlorophenoxy)-4-methyl-1-(2-(2-(trifluoromethyl)phenoxy)ethyl) piperidine]",occupancy in the striatum ([11C]Raclopride PET),continued high occupancy in the striatum
